Key:
Assay in all cases: relative viability (nuclei count vs DMSO), 5 days (fraction); higher = more cells survive
ALW-II-49-7 + Trametinib = compound: Cc1ccc(C(=O)Nc2cccc(C(F)(F)F)c2)cc1Nc1cncc(C(N)=O)c1 [ALW-II-49-7] + CC(=O)Nc1cccc(-n2c(=O)n(C3CC3)c(=O)c3c(Nc4ccc(I)cc4F)n(C)c(=O)c(C)c32)c1 [Trametinib] (partner 0.02 µM)
Procedure, shortened: (§1)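 After 5 days of treatment, lung cancer cells in 1536-well plates were fixed and stained in a single step (final 0.05% Triton X-100, 1% formaldehyde, 1 ug/ml Hoechst) and their nuclei counted on 4× images. Treatment had been applied by pin tool the day after seeding as one drug alone or as a fixed anchor-drug dose with five library-drug doses (not always all listed) in √10 steps. Relative viability is the nuclei count of treated wells divided by that of vehicle wells, and values are medians of duplicate plates.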

ALW-II-49-7 + OSI-027 = compound: Cc1ccc(C(=O)Nc2cccc(C(F)(F)F)c2)cc1Nc1cncc(C(N)=O)c1 [ALW-II-49-7] + COc1cccc2cc(-c3nc([C@H]4CC[C@H](C(=O)O)CC4)n4ncnc(N)c34)[nH]c12 [OSI-027] (partner 0.5 µM)
Procedure, shortened: as §1

Dasatinib + Phenformin = compound: Cc1nc(Nc2ncc(C(=O)Nc3c(C)cccc3Cl)s2)cc(N2CCN(CCO)CC2)n1 [Dasatinib] + N=C(N)NC(=N)NCCc1ccccc1 [Phenformin] (partner 250 µM)
Procedure, shortened: as §1

Dasatinib + Olaparib = compound: Cc1nc(Nc2ncc(C(=O)Nc3c(C)cccc3Cl)s2)cc(N2CCN(CCO)CC2)n1 [Dasatinib] + O=C(c1cc(Cc2n[nH]c(=O)c3ccccc23)ccc1F)N1CCN(C(=O)C2CC2)CC1 [Olaparib] (partner 8 µM)
Procedure, shortened: as §1

Cell Line | relative viability (ALW-II-49-7 + Trametinib; first compound 0.08 µM) | relative viability (ALW-II-49-7 + Trametinib; first compound 0.253 µM) | relative viability (ALW-II-49-7 + Trametinib; first compound 0.8 µM) | relative viability (ALW-II-49-7 + Trametinib; first compound 2.53 µM) | relative viability (ALW-II-49-7 + Trametinib; first compound 8 µM) | relative viability (ALW-II-49-7 + OSI-027; first compound 0.08 µM) | relative viability (ALW-II-49-7 + OSI-027; first compound 0.253 µM) | relative viability (ALW-II-49-7 + OSI-027; first compound 0.8 µM) | relative viability (ALW-II-49-7 + OSI-027; first compound 2.53 µM) | relative viability (ALW-II-49-7 + OSI-027; first compound 8 µM) | relative viability (Dasatinib + Phenformin; first compound 0.005 µM) | relative viability (Dasatinib + Phenformin; first compound 0.01581 µM) | relative viability (Dasatinib + Phenformin; first compound 0.05 µM) | relative viability (Dasatinib + Phenformin; first compound 0.1581 µM) | relative viability (Dasatinib + Phenformin; first compound 0.5 µM) | relative viability (Dasatinib + Olaparib; first compound 0.005 µM) | relative viability (Dasatinib + Olaparib; first compound 0.01581 µM) | relative viability (Dasatinib + Olaparib; first compound 0.05 µM) | relative viability (Dasatinib + Olaparib; first compound 0.1581 µM) | relative viability (Dasatinib + Olaparib; first compound 0.5 µM)
NCI-H2085 | 0.534 | 0.512 | 0.477 | 0.562 | 0.518 | 0.778 | 0.748 | 0.625 | 0.806 | 0.738 | 0.636 | 0.651 | 0.458 | 0.215 | 0.162 | 0.799 | 0.745 | 0.553 | 0.292 | 0.187
NCI-H2087 | 0.214 | 0.211 | 0.228 | 0.189 | 0.188 | 0.578 | 0.537 | 0.525 | 0.547 | 0.51 | 0.517 | 0.461 | 0.562 | 0.343 | 0.161 | 0.635 | 0.55 | 0.902 | 0.42 | 0.349
NCI-H2126 | 0.595 | 0.561 | 0.541 | 0.526 | 0.574 | 0.664 | 0.64 | 0.65 | 0.607 | 0.653 | 0.56 | 0.521 | 0.471 | 0.39 | 0.285 | 0.932 | 0.84 | 0.845 | 0.681 | 0.416
NCI-H2170 | 0.925 | 0.937 | 0.977 | 0.924 | 0.854 | 0.71 | 0.931 | 0.67 | 0.664 | 0.703 | 0.426 | 0.379 | 0.357 | 0.294 | 0.177 | 0.585 | 0.572 | 0.525 | 0.427 | 0.263
NCI-H2228 | 0.413 | 0.408 | 0.406 | 0.521 | 0.373 | 0.502 | 0.269 | 0.496 | 0.59 | 0.471 | 0.354 | 0.298 | 0.28 | 0.242 | 0.218 | 0.847 | 0.647 | 0.714 | 0.464 | 0.273
NCI-H2342 | 0.709 | 0.817 | 0.828 | 0.69 | 0.786 | 0.532 | 0.535 | 0.602 | 0.592 | 0.562 | 0.626 | 0.482 | 0.556 | 0.356 | 0.304 | 0.564 | 0.397 | 0.364 | 0.274 | 0.285
NCI-H2347 | 0.326 | 0.299 | 0.252 | 0.297 | 0.28 | 0.386 | 0.396 | 0.443 | 0.36 | 0.276 | 0.278 | 0.209 | 0.22 | 0.178 | 0.212 | 0.566 | 0.508 | 0.482 | 0.269 | 0.256
NCI-H2405 | 0.662 | 0.699 | 0.637 | 0.47 | 0.467 | 0.634 | 0.643 | 0.583 | 0.558 | 0.609 | 0.363 | 0.301 | 0.258 | 0.153 | 0.137 | 0.749 | 0.531 | 0.458 | 0.282 | 0.231
NCI-H3122 | 0.243 | 0.235 | 0.292 | 0.311 | 0.222 | 0.905 | 0.254 | 1.05 |  | 1.09 | 0.36 | 0.364 | 0.363 | 0.326 | 0.295 | 0.606 | 0.543 | 0.657 | 0.574 | 0.534
PC-3 [JPC-3] | 0.676 | 0.786 | 0.745 | 0.809 | 0.847 | 0.655 | 0.733 | 0.805 | 0.688 | 0.63 | 0.482 | 0.458 | 0.453 | 0.473 | 0.305 | 1.22 | 1.14 | 1.16 | 1.08 | 0.609
PC-14 | 0.722 | 0.826 | 0.717 | 0.683 | 0.665 | 0.815 | 0.824 | 0.622 | 0.645 | 0.579 | 0.618 | 0.681 | 0.553 | 0.339 | 0.152 | 0.29 | 0.31 | 0.368 | 0.224 | 0.0781
RERF-LC-KJ | 0.867 | 0.923 | 0.816 | 0.749 | 0.833 | 0.511 | 0.564 | 0.504 | 0.559 | 0.535 | 0.406 | 0.348 | 0.363 | 0.355 | 0.305 | 0.906 | 0.836 | 0.87 | 0.788 | 0.816
SK-LU-1 | 0.569 | 0.571 | 0.486 | 0.408 | 0.442 | 0.269 | 0.345 | 0.313 | 0.289 | 0.252 | 0.342 | 0.257 | 0.193 | 0.179 | 0.148 | 0.471 | 0.317 | 0.323 | 0.188 | 0.167
SK-MES-1 | 0.573 | 0.628 | 0.562 | 0.6 | 0.447 | 0.588 | 0.547 | 0.578 | 0.456 | 0.331 | 0.721 | 0.681 | 0.669 | 0.361 | 0.171 | 0.766 | 0.794 | 0.56 | 0.214 | 0.151
SW 900 | 0.864 | 0.869 |  | 0.727 | 0.874 | 0.426 | 0.642 | 0.555 | 0.445 | 0.347 | 0.489 | 0.568 | 0.53 | 0.466 | 0.294 | 0.65 | 0.436 | 0.395 | 0.324 | 0.336
SW 1573 | 0.561 | 0.556 | 0.611 | 0.637 | 0.491 | 0.683 | 0.653 | 0.524 | 0.656 | 0.505 | 0.417 | 0.326 | 0.288 | 0.217 | 0.18 | 0.424 | 0.378 | 0.347 | 0.253 | 0.327

— the supplement of paper PMC10307832
